This is an account of results in doi:10.1101/614586v1 (biorxiv, 2019).

What is called IC50 is the concentration at which inhibition is half-maximal. Low readings indicate greater potency, high ones weaker potency.

The structures appear in SMILES notation. Where only a bound is given, the exact number is not on record here.

The first test concerns the target T1, human RAD54 (Homo sapiens, UniProt Q92698).
T1 sequence (Q92698 1-747): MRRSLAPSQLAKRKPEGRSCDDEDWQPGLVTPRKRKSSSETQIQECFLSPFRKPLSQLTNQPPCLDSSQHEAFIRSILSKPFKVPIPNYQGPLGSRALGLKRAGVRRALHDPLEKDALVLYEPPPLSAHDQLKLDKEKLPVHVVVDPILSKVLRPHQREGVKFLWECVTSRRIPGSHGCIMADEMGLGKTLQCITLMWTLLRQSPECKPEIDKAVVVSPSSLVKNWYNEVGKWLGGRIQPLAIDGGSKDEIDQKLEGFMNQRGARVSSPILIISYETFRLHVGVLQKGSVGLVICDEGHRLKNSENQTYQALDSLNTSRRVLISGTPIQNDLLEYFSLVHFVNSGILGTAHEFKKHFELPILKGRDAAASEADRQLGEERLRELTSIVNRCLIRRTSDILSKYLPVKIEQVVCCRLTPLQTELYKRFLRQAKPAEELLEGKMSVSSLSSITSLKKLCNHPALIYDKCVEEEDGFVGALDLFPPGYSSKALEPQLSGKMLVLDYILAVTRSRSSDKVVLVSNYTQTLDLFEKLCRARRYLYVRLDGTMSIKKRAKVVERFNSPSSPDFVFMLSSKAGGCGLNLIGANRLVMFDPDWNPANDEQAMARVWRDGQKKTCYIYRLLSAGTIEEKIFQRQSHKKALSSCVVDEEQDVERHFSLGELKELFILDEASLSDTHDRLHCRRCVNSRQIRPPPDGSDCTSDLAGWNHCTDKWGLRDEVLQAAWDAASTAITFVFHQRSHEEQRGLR
As to the kind of experiment: malachite green phosphate ATPase assay.
Conditions: not given
The format is biochemical.
`CC1(C)Cc2c(ccc3ccccc23)C(CCN2CCCCC2)=N1` [54i-2] came in with an IC50 of 16 ± 3 µM.
For the compound `CC1(C)c2ccccc2N(CCc2nnn[nH]2)c2ccccc21` [tricyc-1], the IC50 was > 130 µM.
Compound `CC1(C)c2cc(Cl)ccc2N(CCc2nnn[nH]2)c2ccc(Cl)cc21` [tricyc-2] came in with an IC50 of 3.07 ± 0.7 µM.
As for `CC1(C)c2cc(Br)ccc2N(CCc2nnn[nH]2)c2ccc(Br)cc21` [tricyc-3], it took 7.65 ± 1.06 µM to reach half-maximal inhibition (IC50).

The target of another test is T1, human RAD54. The test can be described thus: biochemical.
Conditions: not given
With `Cc1ccc(C)n1CCN1CCNCC1` [54h^o-1], the IC50 is > 60 µM.

The next test has as its target T1, human RAD54. As to the kind of experiment: biochemical.
Conditions: not given
This is another data set of the same source.
In turn, `CC1(C)c2ccccc2N(CCc2nnn[nH]2)c2ccccc21` [tricyc-1] gave an IC50 of 129 ± 19.7 µM.

The next test has as its target T1, human RAD54. The test can be described thus: biochemical. As to conditions: read-out: % inh.
As to `CC1(C)Cc2c(ccc3ccccc23)C(CCN2CCCCC2)=N1` [54i-2], the inhibition at 10 µM was found to be 18%.
Regarding `Cc1nc2c(=O)n(C)c(=O)nc-2n(C)n1` [54i^P-1a], the inhibition at 10 µM was 44%.
As for `CCCc1nc2c(=O)n(C)c(=O)nc-2n(C)n1` [54i^P-1b], the inhibition at 10 µM was 61%.
With `CCn1nc(-c2ccccc2C)nc2c(=O)n(C)c(=O)nc1-2` [54i^P-1c], the inhibition at 10 µM stood at 70%.
Take `CCn1nc(-c2ccc(C)cc2)nc2c(=O)n(C)c(=O)nc1-2` [54i^P-1d]: the inhibition at 10 µM is 49%.
`CCn1nc(-c2ccc(C(F)F)cc2)nc2c(=O)n(C)c(=O)nc1-2` [54i^P-1e]: the inhibition at 10 µM is 79%.
In the case of `Cc1ccc(C)n1-c1ccc(C(=O)O)c(O)c1` [54i^P-2a], the inhibition at 10 µM was 50%.
As to `Cc1ccc(C)n1-c1ccc(SCC(=O)O)cc1` [54i^P-2b], the inhibition at 10 µM came out at 70%.
Same read-out and setting: the same measure for `CS(=O)(=O)C1=NSC2=NC(=O)C(=Cc3ccc(SCc4ccc(Cl)cc4)o3)C(=N)N21` [54i^P-3]: 27%; for `NC=O` [54i^P-4]: 36%.
